Measured values reported in patent US20080287430A1, “Furan Compounds Useful As Ep1 Receptor Antagonists” (priority 2005, published 2008).
Counter-ions that a name gives are not always drawn.

These compounds were tested against T1, human EP1 receptor (Homo sapiens, UniProt P34995) (assay: human EP1 calcium mobilisation assay). Conditions: human EP1, PGE2-induced calcium mobilisation in CHO-K1 cells; free bases or sodium salts; averages of a number of experiments; read-out: functional pKi value (converted).
T1 construct: expressed in transfected cells; host or cells: CHO-K1
T1 sequence (P34995 1-402): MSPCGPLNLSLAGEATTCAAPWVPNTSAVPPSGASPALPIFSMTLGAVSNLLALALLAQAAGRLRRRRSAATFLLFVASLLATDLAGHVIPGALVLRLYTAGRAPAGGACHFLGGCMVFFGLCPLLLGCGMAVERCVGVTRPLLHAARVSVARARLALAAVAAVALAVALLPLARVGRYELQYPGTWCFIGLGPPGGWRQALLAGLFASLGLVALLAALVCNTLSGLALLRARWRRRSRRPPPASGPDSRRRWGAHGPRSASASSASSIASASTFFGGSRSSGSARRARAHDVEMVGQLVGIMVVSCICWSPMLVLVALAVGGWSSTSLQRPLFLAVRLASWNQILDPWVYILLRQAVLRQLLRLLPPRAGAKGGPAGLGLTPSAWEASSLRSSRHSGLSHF
Type: cell-based
Experimental: Briefly, the antagonist properties of compounds are assessed by their ability to inhibit the mobilisation of intracellular calcium ([Ca^2+]i) in response to activation of EP1 or EP3 receptors by the natural agonist hormone prostaglandin E2 (PGE2). Increasing concentrations of antagonist reduce the amount of calcium that a given concentration of PGE2 can mobilise. The net effect is to displace the PGE2 concentration-effect curve to higher concentrations of PGE2. The amount of calcium produced is assessed using a calcium-sensitive fluorescent dye such as Fluo-4, AM and a suitable instrument such as a Fluorimetric Imaging Plate Reader (FLIPR). Increasing amounts of [Ca^2+]i produced by receptor activation increase the amount of fluorescence produced by the dye and give rise to an increasing signal. The signal may be detected using the FLIPR instrument and the data generated may be analysed with suitable curve-fitting software.
The human EP1 or EP3 calcium mobilisation assay (hereafter referred to as ‘the calcium assay’) utilises Chinese hamster ovary-K1(CHO-K1) cells into which a stable (pCIN; BioTechniques 20 (1996): 102-110) vector containing either EP1 or EP3 cDNA has previously been transfected. Cells are cultured in suitable flasks containing culture medium such as DMEM:F-12 supplemented with 10% v/v foetal calf serum, 2 mM L-glutamine, 0.25 mg/ml geneticin, 100 μM flurbiprofen and 10 μg/ml puromycin.
For assay, cells are harvested using a proprietary reagent that dislodges cells such as Versene. Cells are re-suspended in a suitable quantity of fresh culture media for introduction into a 384-well plate. Following incubation for 24 hours at 37° C. the culture media is replaced with a medium containing Fluo-4 and the detergent pluronic acid, and a further incubation takes place. Concentrations of compounds are then added to the plate in order to construct concentration-effect curves. This may be performed on the FLIPR in order to assess the agonist properties of the compounds. Concentrations of PGE2 are then added to the plate in order to assess the antagonist properties of the compounds.
The data so generated may be analysed by means of a computerised curve-fitting routine. The concentration of compound that elicits a half-maximal inhibition of the calcium mobilisation induced by PGE2 (pIC50) may then be estimated.

**Q.** How did the Ki turn out when `O=C(Nc1c(F)cccc1F)c1ccc(Cc2cc(Cl)ccc2OCc2ccc(Cl)cc2Cl)o1` [Example 89, 5-[(5-Chloro-2-{[(2,4-dichlorophenyl)methyl]-oxy}phenyl)methyl]-N-(2,6-difluorophenyl)-2-furancarboxamide] was run?
**A.** The Ki was under 1 µM.

**Q.** For `O=C(Nc1c(F)cccc1F)c1ccc(Cc2cc(Cl)ccc2OCc2ccc(Cl)cc2)o1` [Example 90, 5-[(5-Chloro-2-{[(4-chlorophenyl)methyl]oxy}-phenyl)methyl]-N-(2,6-difluorophenyl)-2-furancarboxamide], which Ki is on record?
**A.** Its Ki is under 1 µM.

**Q.** Which Ki does the source give for `O=C(Nc1c(F)cccc1F)c1ccc(Cc2cc(Cl)ccc2OCc2ccccn2)o1` [Example 91, 5-({5-Chloro-2-[(2-pyridinylmethyl)oxy]phenyl}methyl)-N-(2,6-difluorophenyl)-2-furancarboxamide] here?
**A.** Its Ki is under 1 µM.

**Q.** `O=C(Nc1c(F)cccc1F)c1ccc(Cc2cc(Cl)ccc2OCc2cccnc2)o1` [Example 92, 5-({5-Chloro-2-[(3-pyridinylmethyl)oxy]phenyl}methyl)-N-(2,6-difluorophenyl)-2-furancarboxamide] was tested. Which Ki did it give?
**A.** The Ki was under 1 µM.

**Q.** With `CCCOc1ccc(Cl)cc1Cc1ccc(C(=O)Nc2c(F)cccc2F)o1` [Example 93, 5-{[5-Chloro-2-(propyloxy)phenyl]methyl}-N-(2,6-difluorophenyl)-2-furancarboxamide] as the compound, how does the Ki read?
**A.** Its Ki is under 1 µM.

**Q.** `O=C(Nc1c(F)cccc1F)c1ccc(Cc2cc(Cl)ccc2OCC2CC2)o1` [Example 94, 5-({5-Chloro-2-[(cyclopropylmethyl)oxy]-phenyl}methyl)-N-(2,6-difluorophenyl)-2-furancarboxamide] was tested. Which Ki did it give?
**A.** The Ki was under 1 µM.

**Q.** For `O=C(Nc1c(F)cccc1F)c1ccc(Cc2cc(Cl)ccc2OC2CCCC2)o1` [Example 95, 5-{[5-Chloro-2-(cyclopentyloxy)phenyl]-methyl}-N-(2,6-difluorophenyl)-2-furancarboxamide], which Ki is on record?
**A.** Its Ki is under 1 µM.

**Q.** `O=C(Nc1c(F)cccc1F)c1ccc(Cc2cc(Cl)ccc2OCC2CCCCC2)o1` [Example 96, 5-({5-Chloro-2-[(cyclohexylmethyl)oxy]-phenyl}methyl)-N-(2,6-difluorophenyl)-2-furancarboxamide] was tested. Which Ki did it give?
**A.** Its Ki is under 1 µM.

**Q.** Which Ki does the source give for `CCC(CC)COc1ccc(Cl)cc1Cc1ccc(C(=O)Nc2c(F)cccc2F)o1` [Example 97, 5-({5-Chloro-2-[(2-ethylbutyl)oxy]phenyl}meth-yl)-N-(2,6-difluorophenyl)-2-furancarboxamide] here?
**A.** Its Ki is under 1 µM.

**Q.** `COc1ccc2[nH]c(-c3ccc(Cc4cc(Cl)ccc4OCc4ccccc4)o3)nc2c1` [Example 100, 2-[5-({5-Chloro-2-[(phenylmethyl)oxy]phenyl}methyl)-2-furanyl]-5-(methyloxy)-1H-benzimidazole] was tested. Which Ki did it give?
**A.** The Ki was under 1 µM.

**Q.** With `Clc1ccc(OCc2ccccc2)c(Cc2ccc(-c3nc4cscc4[nH]3)o2)c1` [Example 101, 2-[5-({5-Chloro-2-[(phenylmethyl)oxy]phenyl}methyl)-2-furanyl]-1H-thieno[3,4-d]imidazole] as the compound, how does the Ki read?
**A.** The Ki was under 1 µM.

**Q.** With `Clc1ccc(OCc2ccccc2)c(Cc2ccc(-c3nc4nccnc4[nH]3)o2)c1` [Example 102, 2-[5-({5-Chloro-2-[(phenylmethyl)oxy]phenyl}methyl)-2-furanyl]-1H-imidazo[4,5-b]pyrazine] as the compound, how does the Ki read?
**A.** The Ki was under 1 µM.

**Q.** How did the Ki turn out when `CN1CCN(c2ccc3[nH]c(-c4ccc(Cc5cc(Cl)ccc5OCc5ccccc5)o4)nc3c2)CC1` [Example 103, 2-[5-({5-Chloro-2-[(phenylmethyl)oxy]phenyl}methyl)-2-furanyl]-5-(4-methyl-1-piperazinyl)-1H-benzimidazolehydrochloride] was run?
**A.** Its Ki is under 1 µM.

**Q.** `CC(C)COc1ccc(Cl)cc1Cc1ccc(-c2nc3cscc3[nH]2)o1` [Example 109, 2-[5-({5-Chloro-2-[(2-methylpropyl)oxy]-phenyl}methyl)-2-furanyl]-1H-thieno[3,4-d]imidazole] was tested. Which Ki did it give?
**A.** The Ki was under 1 µM.

**Q.** Which Ki does the source give for `CC(C)COc1ccc(Cl)cc1Cc1ccc(-c2nc3ccc(Br)cc3[nH]2)o1` [Example 110, 5-Bromo-2-[5-({5-chloro-2-[(2-methylpropyl)oxy]-phenyl}methyl)-2-furanyl]-1H-benzimidazolehydrochloride] here?
**A.** The Ki was over 1 µM.
